From patent publication EP1247803A2, “Indolinone compounds suitable for modulation of protein kinases” (Sugen, Inc., priority 1996, dated 1998)

Legend:
EGFR = biological target: T1, EGFR (Homo sapiens, UniProt P00533); assay: EGFR ELISA assay (in vitro kinase activity, EGFR captured from A431 cell lysate); type: biochemical; parameters: concentration or dose not given beside the values
T1 construct: Add 7 ug A431 cell lysate per well (EGFR source); endogenous in cells; host or cells: A431
Procedure, shortened: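 EGFR from A431 lysate was captured on anti-EGFR antibody-coated plates and preincubated with compounds for 30 min. Autophosphorylation ran 5 min with 3 uM ATP and 5 mM MnCl2 (final), stopped with 20 mM EDTA. Phosphotyrosine was detected by anti-pTyr ELISA with ABTS/H2O2, read at 410 nm.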

MET = MET biochemical kinase assay; parameters: species or system human; concentration or dose not given beside the values
Procedure, shortened: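 Immunocaptured MET autophosphorylation, read colorimetrically (TMB) via HRP anti-phosphotyrosine antibody. Kinase reaction initiated with buffer containing ATP and divalent metals after compound addition to plate-bound receptor from lysates.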

T1 sequence (P00533 25-1210): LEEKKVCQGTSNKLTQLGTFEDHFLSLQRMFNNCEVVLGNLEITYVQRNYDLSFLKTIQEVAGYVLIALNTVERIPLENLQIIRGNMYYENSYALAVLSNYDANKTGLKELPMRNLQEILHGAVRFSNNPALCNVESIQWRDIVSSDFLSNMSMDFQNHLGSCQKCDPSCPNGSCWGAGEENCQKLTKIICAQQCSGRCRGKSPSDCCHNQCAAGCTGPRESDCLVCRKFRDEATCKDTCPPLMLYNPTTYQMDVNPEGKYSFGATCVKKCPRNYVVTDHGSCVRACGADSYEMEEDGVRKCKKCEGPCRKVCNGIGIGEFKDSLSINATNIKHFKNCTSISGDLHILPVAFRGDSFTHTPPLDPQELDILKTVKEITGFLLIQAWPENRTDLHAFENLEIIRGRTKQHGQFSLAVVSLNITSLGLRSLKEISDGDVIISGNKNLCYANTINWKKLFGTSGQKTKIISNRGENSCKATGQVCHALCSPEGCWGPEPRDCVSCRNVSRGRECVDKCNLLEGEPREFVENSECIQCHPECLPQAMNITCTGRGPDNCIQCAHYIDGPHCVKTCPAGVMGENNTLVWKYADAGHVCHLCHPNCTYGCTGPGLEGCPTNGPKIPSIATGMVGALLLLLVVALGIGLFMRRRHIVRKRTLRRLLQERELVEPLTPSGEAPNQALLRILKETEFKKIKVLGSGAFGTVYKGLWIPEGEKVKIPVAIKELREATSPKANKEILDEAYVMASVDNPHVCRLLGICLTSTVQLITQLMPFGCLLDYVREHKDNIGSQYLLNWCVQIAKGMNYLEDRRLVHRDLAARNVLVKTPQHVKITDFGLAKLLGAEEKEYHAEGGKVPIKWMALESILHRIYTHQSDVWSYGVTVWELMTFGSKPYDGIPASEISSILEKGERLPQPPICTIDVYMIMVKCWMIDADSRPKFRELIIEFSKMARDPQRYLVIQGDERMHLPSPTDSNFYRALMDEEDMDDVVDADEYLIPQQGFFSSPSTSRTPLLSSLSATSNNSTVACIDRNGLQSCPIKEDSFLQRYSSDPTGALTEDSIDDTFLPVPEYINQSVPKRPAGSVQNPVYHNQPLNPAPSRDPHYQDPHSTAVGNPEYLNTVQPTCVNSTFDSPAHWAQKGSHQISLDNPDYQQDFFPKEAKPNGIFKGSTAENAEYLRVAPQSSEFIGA

Row | SMILES | Biochem EGFR %Inhibition (EGFR) [%] | Met Kinase % Inhibition (MET) [%]
1 | CNS(=O)(=O)c1ccc2c(c1)C(=Cc1cc([N+](=O)[O-])c(O)c(C(C)(C)C)c1)C(=O)N2 [10722/D02] | 26.1 | 26.4
2 | O=C1Nc2c(Br)cc(Br)cc2C1=Cc1ccc(C(=O)O)cc1 [10722/A05] | 22.4 | 90.5
3 | CNS(=O)(=O)c1ccc2c(c1)C(=Cc1ccc(C)s1)C(=O)N2 [10717/D07] | -4.5 | 16.8
4 | CNS(=O)(=O)c1ccc2c(c1)C(=Cc1cc(Cl)c(O)c(C(C)(C)C)c1)C(=O)N2 [10722/D08] | -2.6 | 60.5
5 | O=C1Nc2c(Br)cc(Br)cc2C1=Cc1ccc(C(F)(F)F)cc1 [10722/A11] | -0.1 | 68.6
6 | CNS(=O)(=O)c1ccc2c(c1)C(=Cc1c[nH]c3ccccc13)C(=O)N2 [10717/D06] | -23.4 | 33.8
7 | Cc1cc(C=C2C(=O)Nc3ccc(S(=O)(=O)Nc4ccc(C(F)(F)F)cc4)cc32)sc1C [10721/E04] | 48.5 | 87.3
8 | Cc1cc(C=C2C(=O)Nc3ccc(S(=O)(=O)Nc4ccc(C(F)(F)F)cc4)cc32)cc(C)c1O [10722/E07] | 28.7 | 71.6
9 | CCOc1ccccc1C=C1C(=O)Nc2ccc(S(=O)(=O)NC)cc21 [10717/D02] | 10.1 | 28.6
10 | O=C1Nc2ccc(I)cc2C1=Cc1ccc(C(=O)O)cc1 [10722/B05] | 9.3 | 67.2
11 | O=C1Nc2ccc(S(=O)(=O)Nc3ccc(C(F)(F)F)cc3)cc2C1=Cc1ccc(F)cc1F [10722/E06] | 7.6 | 71.6
12 | O=C1Nc2ccc(S(=O)(=O)Nc3ccc(C(F)(F)F)cc3)cc2C1=Cc1cc([N+](=O)[O-])cc(CCl)c1O [10721/E06] | 91.5 | 81.0
13 | O=C1Nc2c(Br)cc(Br)cc2C1=Cc1csc([N+](=O)[O-])c1 [10722/A09] | 16.8 | 86.5
14 | O=C1Nc2ccc(S(=O)(=O)Nc3ccc(C(F)(F)F)cc3)cc2C1=Cc1csc([N+](=O)[O-])c1 [10722/E09] | 4.1 | 55.1
15 | CCCCN(CCCC)c1ccc(C=C2C(=O)Nc3c(Br)cc(Br)cc32)cc1 [10722/A10] | -4.2 | 79.0
16 | CNS(=O)(=O)c1ccc2c(c1)C(=Cc1ccc(F)cc1)C(=O)N2 [10717/D05] | -2.8 | 23.8
17 | Cc1cc(C)c(C=C2C(=O)Nc3ccc(CCCl)cc32)[nH]1 [10721/G08] | 12.8 | -2.4
18 | O=C1Nc2ccc(CCCl)cc2C1=Cc1ccc(Cl)s1 [10721/G07] | 14.7 | 10.0
19 | CC(C)(C)c1cc(C=C2C(=O)Nc3c(Br)cc(Br)cc32)cc(Cl)c1O [10722/A08] | 23.9 | 70.5

Row | SMILES | Biochem EGFR %Inhibition (EGFR) [%] | Met Kinase % Inhibition (MET) [%]
20 | CNS(=O)(=O)c1ccc2c(c1)C(=Cc1ccc[nH]1)C(=O)N2 [10717/D09] | 6.8 | 29.1
21 | O=C1Nc2ccc(S(=O)(=O)Nc3ccc(C(F)(F)F)cc3)cc2C1=Cc1ccc(C(F)(F)F)cc1 [10722/E11] | 4.2 | 84.0
22 | CNS(=O)(=O)c1ccc2c(c1)C(=Cc1cc(C(C)(C)C)c(O)c(C(C)(C)C)c1)C(=O)N2 [10721/D11] | 22.2 | 23.2
23 | CNS(=O)(=O)c1ccc2c(c1)C(=Cc1cc(C)c(O)c(C)c1)C(=O)N2 [10722/D07] | -2.8 | 42.6
24 | CC(C)(C)c1cc(C=C2C(=O)Nc3ccc(I)cc32)cc(Cl)c1O [10722/B08] | 0.5 | 72.0
25 | CC(C)(C)c1cc(C=C2C(=O)Nc3ccc(S(=O)(=O)Nc4ccc(C(F)(F)F)cc4)cc32)cc(Cl)c1O [10722/E08] | 10.4 | 82.8
26 | O=C1Nc2ccc(S(=O)(=O)Nc3ccc(C(F)(F)F)cc3)cc2C1=Cc1ccc(Cl)s1 [10721/E07] | 37.7 | 43.6
27 | CNS(=O)(=O)c1ccc2c(c1)C(=Cc1ccc(F)cc1F)C(=O)N2 [10722/D06] | -2.5 | 32.4
28 | O=C1Nc2c(Br)cc(Br)cc2C1=Cc1cccs1 [10717/A03] | 1.0 | 54.6
29 | O=C1Nc2ccc(I)cc2C1=Cc1ccc(C(F)(F)F)cc1 [10722/B11] | -15.5 | 83.0
30 | CC(C)(C)c1cc(C=C2C(=O)Nc3ccc(S(=O)(=O)N4CCOCC4)cc32)cc(C(C)(C)C)c1O [10721/F11] | 95.9 | 78.2
31 | O=C1Nc2ccc(I)cc2C1=Cc1ccc([N+](=O)[O-])s1 [10722/B04] | 10.6 | 53.4
32 | CC(C)(C)c1cc(C=C2C(=O)Nc3ccc(S(=O)(=O)N4CCOCC4)cc32)ccc1O [10721/F09] | 7.0 | 52.5
33 | CC(C)(C)c1cc(C=C2C(=O)Nc3ccc(CCCl)cc32)cc(C(C)(C)C)c1O [10721/G11] | 0.4 | -0.0
34 | Cc1cc(C=C2C(=O)Nc3ccc(CCCl)cc32)sc1C [10721/G04] | 64.6 | 90.3
35 | O=C1Nc2ccc(S(=O)(=O)N3CCOCC3)cc2C1=Cc1ccc(Cl)s1 [10721/F07] | 3.5 | 55.7
36 | Cc1cc(C=C2C(=O)Nc3c(Br)cc(Br)cc32)cc(C)c1O [10722/A07] | 29.9 | 64.1
37 | O=C1Nc2ccc(S(=O)(=O)N3CCOCC3)cc2C1=Cc1cc2c([nH]1)CCCC2 [10721/F05] | 20.5 | 67.8
38 | Cc1cc(C=C2C(=O)Nc3ccc(S(=O)(=O)N4CCOCC4)cc32)sc1C [10721/F04] | 0.0 | 26.0

Row | SMILES | Biochem EGFR %Inhibition (EGFR) [%] | Met Kinase % Inhibition (MET) [%]
39 | CC(C)(C)c1cc(C=C2C(=O)Nc3ccc(I)cc32)cc([N+](=O)[O-])c1O [10722/B02] | 16.3 | 44.3
40 | O=C1Nc2ccc(CCCl)cc2C1=Cc1cc2c([nH]1)CCCC2 [10721/G05] | 7.7 | 8.6
41 | CC(C)(C)c1cc(C=C2C(=O)Nc3ccc(S(=O)(=O)Nc4ccc(C(F)(F)F)cc4)cc32)cc([N+](=O)[O-])c1O [10722/E02] | 22.2 | 71.1
42 | CCCCN(CCCC)c1ccc(C=C2C(=O)Nc3ccc(S(=O)(=O)NC)cc32)cc1 [10722/D10] | -0.6 | 40.5
43 | Cn1c(C=C2C(=O)Nc3ccc(S(=O)(=O)Nc4ccc(C(F)(F)F)cc4)cc32)nc2ccccc21 [10721/E02] | -9.5 | 38.8
44 | Cn1cc(Cl)c(C=C2C(=O)Nc3ccc(S(=O)(=O)N4CCOCC4)cc32)n1 [10721/F03] | 7.0 | 40.6
45 | CNS(=O)(=O)c1ccc2c(c1)C(=Cc1c(O)cc(O)cc1O)C(=O)N2 [10722/D03] | 31.0 | 52.8
46 | Cn1c(C=C2C(=O)Nc3ccc(CCCl)cc32)nc2ccccc21 [10721/G02] | 23.6 | 7.9
47 | Cc1cc(C)c(C=C2C(=O)Nc3ccc(S(=O)(=O)Nc4ccc(C(F)(F)F)cc4)cc32)[nH]1 [10721/E08] | 29.8 | 39.5
48 | CNS(=O)(=O)c1ccc2c(c1)C(=Cc1ccc(C(F)(F)F)cc1)C(=O)N2 [10722/D11] | -10.1 | 41.0
49 | O=C1Nc2ccc(I)cc2C1=Cc1ccc(F)cc1F [10722/B06] | -4.9 | 72.6
50 | CC(C)(C)c1cc(C=C2C(=O)Nc3c(Br)cc(Br)cc32)cc([N+](=O)[O-])c1O [10722/A02] | 23.7 | 44.9
51 | Cn1cc(Cl)c(C=C2C(=O)Nc3ccc(CCCl)cc32)n1 [10721/G03] | 23.4 | 25.3
52 | CC(C)(C)c1cc(C=C2C(=O)Nc3ccc(S(=O)(=O)N4CCOCC4)cc32)cc(Br)c1O [10721/F10] | 7.5 | 79.9
53 | CCCCN(CCCC)c1ccc(C=C2C(=O)Nc3ccc(S(=O)(=O)Nc4ccc(C(F)(F)F)cc4)cc32)cc1 [10722/E10] | -13.3 | 86.6
54 | CC(C)(C)c1cc(C=C2C(=O)Nc3ccc(CCCl)cc32)cc(Br)c1O [10721/G10] | 2.1 | 12.0
55 | O=C1Nc2c(Br)cc(Br)cc2C1=Cc1c(O)cc(O)cc1O [10722/A03] | 0.8 | 90.3
56 | CNS(=O)(=O)c1ccc2c(c1)C(=Cc1csc([N+](=O)[O-])c1)C(=O)N2 [10722/D09] | -17.2 | 52.2
57 | CNS(=O)(=O)c1ccc2c(c1)C(=Cc1c(O)cccc1OC)C(=O)N2 [10717/D10] | 3.5 | 15.6
